Results from PubChem BioAssay AID2060609 (Molecular Pharmacology Branch, DTP, NCI, 2025).
Where “and” joins values, the source holds several entries; their conditions need not be identical. Equal values may be shown once.

Test system: 855422-203-R-J1-PDC complex spheroids, viability
Assay: Anticancer human tumor 855422-203-R-J1-PDC patient-derived bladder carcinoma cell line growth inhibition [CLK]
Details: for viability, T/C: stronger effect = lower value
Outline: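 Multi-cell-type spheroids combined patient-derived tumor cells with HUVEC endothelial cells and human mesenchymal stem cells. Paired agents were dosed in half-log steps down from about clinical Cmax, or from 10 microM where Cmax was unknown.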

[1] = curve of first compound, second compound 0.0316 µM
[2] = curve of first compound, second compound 0.1 µM
[3] = curve of first compound, second compound 0.316 µM
[4] = curve of first compound, second compound 1 µM
[5] = curve of first compound, second compound 3.16 µM
[6] = curve of first compound, second compound 10 µM
[7] = second compound 0.0316 µM, first compound 0.0316 µM
[8] = second compound 0.0316 µM, first compound 0.1 µM
[9] = second compound 0.1 µM, first compound 0.0316 µM
[10] = second compound 0.1 µM, first compound 0.1 µM
[11] = second compound 0.316 µM, first compound 0.0316 µM
[12] = second compound 0.316 µM, first compound 0.1 µM
[13] = second compound 1 µM, first compound 0.0316 µM
[14] = second compound 1 µM, first compound 0.1 µM
[15] = second compound 3.16 µM, first compound 0.0316 µM
[16] = second compound 3.16 µM, first compound 0.1 µM
[17] = second compound 10 µM, first compound 0.0316 µM
[18] = second compound 10 µM, first compound 0.1 µM
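Further: spheroids exposed to drugs for seven days before readout.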
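Wherever viability, T/C is given: 100% = DMSO vehicle control wells.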

Structure (SMILES): O=c1[nH]cc(F)c(=O)[nH]1
- viability, T/C (compound 0.0316 µM): 109% and 162%
- viability, T/C (compound 0.1 µM): 103% and 123%
- viability, T/C (compound 0.316 µM): 86.9% and 104%
- viability, T/C (compound 1 µM): 60.5% and 74.4%
- viability, T/C (compound 3.16 µM): 51.7% and 56%
- viability, T/C (compound 10 µM): 40% and 45.8%
- IC50 (curve of compound): 2.69 µM and 6.24 µM

Structure (SMILES): C#Cc1c(F)ccc2cc(O)cc(-c3ncc4c(N5CC6CCC(C5)N6)nc(OCC56CCCN5CC(F)C6)nc4c3F)c12 (configuration not stated)
- viability, T/C (compound 0.0316 µM): 118% and 106%
- viability, T/C (compound 0.1 µM): 92.7% and 95.3%
- viability, T/C (compound 0.316 µM): 117% and 113%
- viability, T/C (compound 1 µM): 114% and 97.7%
- viability, T/C (compound 3.16 µM): 119% and 104%
- viability, T/C (compound 10 µM): 98.7% and 112%
- IC50 (curve of compound): > 10 µM

Structure (SMILES): CC(CO)NC(=O)c1cc(-c2ccc(Cl)cc2)nn(-c2cnn(C)c2)c1=O (configuration not stated)
- viability, T/C (compound 0.0316 µM): 92.5% and 94.5%
- viability, T/C (compound 0.1 µM): 89.1% and 85.5%
- viability, T/C (compound 0.316 µM): 94.6% and 92.7%
- viability, T/C (compound 1 µM): 93.5% and 99.6%
- viability, T/C (compound 3.16 µM): 110% and 99.5%
- viability, T/C (compound 10 µM): 82.2% and 94%
- IC50 (curve of compound): > 10 µM

Structure (SMILES): NC(=O)C(=Cn1cnc(-c2cc(C(F)(F)F)cc(C(F)(F)F)c2)n1)c1cncnc1 + CNC(=O)c1ccc(Nc2nc(OC3CCCC3)c3c(-c4ccc5nc(C)oc5c4)c[nH]c3n2)c(OC)c1
- IC50 [1]: 0.0693 µM
- IC50 [2]: < 0.00949 µM
- IC50 [3]: < 0.00949 µM
- IC50 [4]: < 0.00949 µM
- IC50 [5]: < 0.00949 µM
- IC50 [6]: < 0.00949 µM
- viability, T/C (second compound 0.0316 µM, first compound 0.00949 µM): 123%
- viability, T/C (second compound 0.0316 µM, first compound 0.03 µM): 150%
- viability, T/C (second compound 0.0316 µM, first compound 0.0949 µM): 17.6%
- viability, T/C (second compound 0.0316 µM, first compound 0.3 µM): 10.1%
- viability, T/C (second compound 0.0316 µM, first compound 0.949 µM): 9.34%
- viability, T/C (second compound 0.0316 µM, first compound 3 µM): 3.87%
- viability, T/C (second compound 0.1 µM, first compound 0.00949 µM): 44.8%
- viability, T/C (second compound 0.1 µM, first compound 0.03 µM): 50.1%
- viability, T/C (second compound 0.1 µM, first compound 0.0949 µM): 12.1%
- viability, T/C (second compound 0.1 µM, first compound 0.3 µM): 6.75%
- viability, T/C (second compound 0.1 µM, first compound 0.949 µM): 5.9%
- viability, T/C (second compound 0.1 µM, first compound 3 µM): 2.36%
- viability, T/C (second compound 0.316 µM, first compound 0.00949 µM): 20.1%
- viability, T/C (second compound 0.316 µM, first compound 0.03 µM): 13.7%
- viability, T/C (second compound 0.316 µM, first compound 0.0949 µM): 12.3%
- viability, T/C (second compound 0.316 µM, first compound 0.3 µM): 6.63%
- viability, T/C (second compound 0.316 µM, first compound 0.949 µM): 3.98%
- viability, T/C (second compound 0.316 µM, first compound 3 µM): 3%
- viability, T/C (second compound 1 µM, first compound 0.00949 µM): 18.6%
- viability, T/C (second compound 1 µM, first compound 0.03 µM): 10.4%
- viability, T/C (second compound 1 µM, first compound 0.0949 µM): 9.1%
- viability, T/C (second compound 1 µM, first compound 0.3 µM): 3.59%
- viability, T/C (second compound 1 µM, first compound 0.949 µM): 1.47%
- viability, T/C (second compound 1 µM, first compound 3 µM): 0.79%
- viability, T/C (second compound 3.16 µM, first compound 0.00949 µM): 14.3%
- viability, T/C (second compound 3.16 µM, first compound 0.03 µM): 14%
- viability, T/C (second compound 3.16 µM, first compound 0.0949 µM): 6.09%
- viability, T/C (second compound 3.16 µM, first compound 0.3 µM): 2.12%
- viability, T/C (second compound 3.16 µM, first compound 0.949 µM): 1.2%
- viability, T/C (second compound 3.16 µM, first compound 3 µM): 1.63%
- viability, T/C (second compound 10 µM, first compound 0.00949 µM): 14.7%
- viability, T/C (second compound 10 µM, first compound 0.03 µM): 13.1%
- viability, T/C (second compound 10 µM, first compound 0.0949 µM): 7.07%
- viability, T/C (second compound 10 µM, first compound 0.3 µM): 1.75%
- viability, T/C (second compound 10 µM, first compound 0.949 µM): 1.33%
- viability, T/C (second compound 10 µM, first compound 3 µM): 0.47%

Structure (SMILES): Cn1ncnc1[C@H]1c2n[nH]c(=O)c3cc(F)cc(c23)N[C@@H]1c1ccc(F)cc1 + CNC(=O)c1ccc(Nc2nc(OC3CCCC3)c3c(-c4ccc5nc(C)oc5c4)c[nH]c3n2)c(OC)c1
- IC50 [1]: > 0.1 µM
- IC50 [2]: 0.036 µM
- IC50 [3]: < 0.000316 µM
- IC50 [4]: < 0.000316 µM
- IC50 [5]: < 0.000316 µM
- IC50 [6]: < 0.000316 µM
- viability, T/C (second compound 0.0316 µM, first compound 0.000316 µM): 118%
- viability, T/C (second compound 0.0316 µM, first compound 0.001 µM): 102%
- viability, T/C (second compound 0.0316 µM, first compound 0.00316 µM): 126%
- viability, T/C (second compound 0.0316 µM, first compound 0.01 µM): 109%
- viability, T/C [7]: 102%
- viability, T/C [8]: 110%
- viability, T/C (second compound 0.1 µM, first compound 0.000316 µM): 57.1%
- viability, T/C (second compound 0.1 µM, first compound 0.001 µM): 59.4%
- viability, T/C (second compound 0.1 µM, first compound 0.00316 µM): 45.4%
- viability, T/C (second compound 0.1 µM, first compound 0.01 µM): 66.2%
- viability, T/C [9]: 43.5%
- viability, T/C [10]: 47.3%
- viability, T/C (second compound 0.316 µM, first compound 0.000316 µM): 19.1%
- viability, T/C (second compound 0.316 µM, first compound 0.001 µM): 22.2%
- viability, T/C (second compound 0.316 µM, first compound 0.00316 µM): 20.5%
- viability, T/C (second compound 0.316 µM, first compound 0.01 µM): 24.7%
- viability, T/C [11]: 24.2%
- viability, T/C [12]: 21.5%
- viability, T/C (second compound 1 µM, first compound 0.000316 µM): 21%
- viability, T/C (second compound 1 µM, first compound 0.001 µM): 17.4%
- viability, T/C (second compound 1 µM, first compound 0.00316 µM): 18%
- viability, T/C (second compound 1 µM, first compound 0.01 µM): 18.8%
- viability, T/C [13]: 18.4%
- viability, T/C [14]: 18.2%
- viability, T/C (second compound 3.16 µM, first compound 0.000316 µM): 17.9%
- viability, T/C (second compound 3.16 µM, first compound 0.001 µM): 17.6%
- viability, T/C (second compound 3.16 µM, first compound 0.00316 µM): 22.1%
- viability, T/C (second compound 3.16 µM, first compound 0.01 µM): 18.5%
- viability, T/C [15]: 21.7%
- viability, T/C [16]: 19.3%
- viability, T/C (second compound 10 µM, first compound 0.000316 µM): 20.3%
- viability, T/C (second compound 10 µM, first compound 0.001 µM): 21.9%
- viability, T/C (second compound 10 µM, first compound 0.00316 µM): 19.2%
- viability, T/C (second compound 10 µM, first compound 0.01 µM): 22%
- viability, T/C [17]: 18%
- viability, T/C [18]: 15.5%

Structure (SMILES): C=C(F)C(=O)N1CCN(c2nc(OCC3CCCN3C)nc3c2CCN(c2cccc4cccc(Cl)c24)C3)CC1CC#N (configuration not stated) + CN1CCN(c2cc(C(=O)Nc3cc4cc(-c5cnn(C)c5)ccc4cn3)ccn2)CC1
- IC50 [1]: 2.46 µM
- IC50 [2]: 1.98 µM
- IC50 [3]: < 0.0316 µM
- IC50 [4]: < 0.0316 µM
- IC50 [5]: < 0.0316 µM
- IC50 [6]: < 0.0316 µM
- viability, T/C [7]: 108%
- viability, T/C [8]: 110%
- viability, T/C (second compound 0.0316 µM, first compound 0.316 µM): 122%
- viability, T/C (second compound 0.0316 µM, first compound 1 µM): 115%
- viability, T/C (second compound 0.0316 µM, first compound 3.16 µM): 32%
- viability, T/C (second compound 0.0316 µM, first compound 10 µM): 0.22%
- viability, T/C [9]: 89.1%
- viability, T/C [10]: 86%
- viability, T/C (second compound 0.1 µM, first compound 0.316 µM): 87.3%
- viability, T/C (second compound 0.1 µM, first compound 1 µM): 95.1%
- viability, T/C (second compound 0.1 µM, first compound 3.16 µM): 22.8%
- viability, T/C (second compound 0.1 µM, first compound 10 µM): 0.8%
- viability, T/C [11]: 14.2%
- viability, T/C [12]: 14.4%
- viability, T/C (second compound 0.316 µM, first compound 0.316 µM): 14.8%
- viability, T/C (second compound 0.316 µM, first compound 1 µM): 14.6%
- viability, T/C (second compound 0.316 µM, first compound 3.16 µM): 4.45%
- viability, T/C (second compound 0.316 µM, first compound 10 µM): 0.07%
- viability, T/C [13]: 0.29%
- viability, T/C [14]: 0.34%
- viability, T/C (second compound 1 µM, first compound 0.316 µM): 0.28%
- viability, T/C (second compound 1 µM, first compound 1 µM): 0.26%
- viability, T/C (second compound 1 µM, first compound 3.16 µM): 0.12%
- viability, T/C (second compound 1 µM, first compound 10 µM): 1.08%
- viability, T/C [15]: 0.68%
- viability, T/C [16]: 0.91%
- viability, T/C (second compound 3.16 µM, first compound 0.316 µM): 0.57%
- viability, T/C (second compound 3.16 µM, first compound 1 µM): 0.77%
- viability, T/C (second compound 3.16 µM, first compound 3.16 µM): 1.08%
- viability, T/C (second compound 3.16 µM, first compound 10 µM): 0.11%
- viability, T/C [17]: 0.54%
- viability, T/C [18]: 0.51%
- viability, T/C (second compound 10 µM, first compound 0.316 µM): 0.41%
- viability, T/C (second compound 10 µM, first compound 1 µM): 0.42%
- viability, T/C (second compound 10 µM, first compound 3.16 µM): 0.61%
- viability, T/C (second compound 10 µM, first compound 10 µM): 0.22%
